Experimental data published in patent publication US12557812B2, “Method and composition for water treatment” (BROMINE COMPOUNDS LTD., priority 2019, dated 2026).

What was measured:
[1] = test system: biofilm culture derived from fresh-water mixed microbial community obtained from cooling tower water; experiment: Simultaneous CDA and biocide on mixed biofilm from cooling tower water, 24-well plates; assay type: cell-based; conditions: 15 ppm DBNPA, 310 nM CDA, two hours (FIG. 5B)
Description: (§1) The effect of bromine-containing biocide in combination with CDA on pre-grown biofilms was studied. The experiment was carried out utilizing (A) the P. aeruginosa strain PA14 and (B) mixed bacterial species derived from environmental and industrial water.
(§2) Bacteria were cultured in EPRI medium supplemented with Hutners mineral solution and glucose (0.2%). Microorganisms were incubated at room temperature (22° C.), under aerobic conditions with shaking. The biofilm culture system used included polystyrene 24-well plates that were treated with protein to enhance attachment and growth of biofilm bacteria according to the method described in Davies D G, Marques C N, 2009, J Bacteriol 191:1393-1403.
(§3) Following inoculation with 1 mL bacterial culture, spent medium was removed and replaced with sterile medium every 24 hours for 3 days, and a final medium exchange was performed 3 hours prior to treatment. Additionally, the medium was exchanged prior to treatment in order to remove planktonic bacteria. Treatments consisted of 100 μL of 310 nM CDA and bromine-containing biocide, or bromine-containing biocide alone at concentrations used in commercial water treatment, water was used as a carrier, for a contact time determined by activity of each biocide and ranging from 1 hour to 24 hours, as detailed below for each of the tested biocides. […]

[2] = test system: Pseudomonas aeruginosa biofilm; experiment: Sequential application of CDA then biocide on 3-day-old biofilm grown in CDC biofilm reactor (single tube method); assay type: cell-based; conditions: biocide 10 ppm
[3] = Storage stability of biocide/CDA liquid concentrates (HPLC); assay type: physicochemical; conditions: Example 6 concentrate C103-PEG200-H2O-CDA-BHT 20:50:30:0.1:0.1; 25° C., two months
Description: 22 mg of cis-2-decenoic acid (CiVentiChem, 96.72% purity) were charged into 50 ml flask, equipped with a stirrer 3.99 gr of C-103 (ICL, batch 640160147) were added, followed by 9.97 gr of PEG200 (Merck 8.07483.5000 Lot 56904983 451), 5.95 gr of DI water and 22 mg of BHT (Aldrich B1378-100G, BCBH9491V). The obtained solution was stirred till complete clarification; sonication at +30° C. is recommended if some particles are observed. Clear colorless solution of a total […] and 20:50:30:0.1:0.1 weight ratio of C103-PEG200-H2O-CDA-BHT was obtained.
The solution was tested to determine the stability of the biocide and CDA and under storage at 25° C. over a two-month period.
47.6 mg or cis-2-decenoic acid (CiVentiChem, 96.72% purity) were charged into 50 ml flask, equipped with a stirrer. 9.01 gr of Bronopol (ICL, batch 17101607) were added, followed by 18.03 gr of propylene glycol (Biolab 16200201 Lot 1007861), 3.0 gr of DI water and 31.2 mg of BHT (Aldrich B1378-100G, BCBH9491V). After stirring for several minutes, undissolved traces of BHT were filtered through filtering paper for BHT particle removal. Clear colorless solution of a total 30 gr and 30:60:10:0.158:0.1 weight ratio of Bronopol-PG-H2O-CDA-BHT was obtained.

[4] = test system: P. aeruginosa (ATCC 700888) massive biofilm; experiment: Sequential CDA then biocide on massive biofilm grown in drip flow tubes (modified ASTM 2647-13); assay type: cell-based, Pseudomonas aeruginosa; conditions: 30.0 ppm DBNPA 3 h after 310 nM CDA 2 h (FIG. 18)
From the text: The effect of the sequential addition of CDA and bromine-containing biocide was studied using P. aeruginosa biofilm grown in the drip flow tubes (according to a modification of standard ASTM 2647-13, standard Test Method for Quantification of Pseudomonas aeruginosa Biofilm Grown Using Drip Flow Biofilm Reactor with Low Shear and Continuous Flow). This method produces massive biofilm resulting with harsh conditions that are very difficult to treat. The addition of the bromine-containing biocide took place 120 min after the addition of 310 nM CDA (the biocide that was tested in this study was DBNPA).
• a) A continuous once-through tube system was configured by using silicone coated latex tubes, connected to a peristaltic pump via additional silicone tubing. • b) The silicone coated latex tubes were inoculated by syringe injection of overnight cultures of P. aeruginosa (ATCC 700888), 5*10^7 CFU/ML in 10% TSB (Tryptic Soy Broth). […]
The following treatments were conducted: • 1. […] Each dilution was cultured in duplicate (on R2A agar) for colony growth using the pour plating method. • h) The plates were incubated at 36° C. for 17-20 h. • i) The appropriate number of colonies were counted. […]

[5] = test system: undefined mixed microbial biofilm cultures derived from an environmental water source; experiment: Simultaneous CDA and biocide on mixed biofilm from environmental water, 24-well plates; assay type: cell-based; conditions: 15 ppm DBNPA, 310 nM CDA, two hours (FIG. 5A)
Description: as §1, §2, §3

[6] = test system: P. aeruginosa strain PA14 biofilm; experiment: Simultaneous application of CDA and biocide on 3-day biofilm in 24-well plates; assay type: cell-based, Pseudomonas aeruginosa; conditions: 15 ppm DBNPA, 310 nM CDA, two hours (FIG. 3)
Description: as §1, §2
Following inoculation with 1 mL bacterial culture, spent medium was removed and replaced with sterile medium every 24 hours for 3 days, and a final medium exchange was performed 3 hours prior to treatment. Additionally, the medium was exchanged prior to treatment in order to remove planktonic bacteria. Treatments consisted of 100 μL of 310 nM CDA and bromine-containing biocide, or bromine-containing biocide alone at concentrations used in commercial water treatment, water was used as a carrier, for a contact time determined by activity of each biocide and ranging from 1 hour to 24 hours, as detailed below for each of the tested biocides.
Following the treatment, the medium from each well was removed by pipet and 1 mL of DE neutralization broth was added in order to stop the treatment. Bacteria from each well were then removed by scraping the biofilm formed in the well with a sterile cell-scraper, and 1.0 mL of culture was transferred to chilled (4° C.) 9.0 mL DE neutralizing broth and homogenized for 15 seconds at 40,000 rpm on ice. Further dilutions were performed prior to enumeration (further neutralizing biocide activity). Recovery of bacteria were tested at different dilutions of biocide in water, in LB medium with thioglycolate and in DE neutralizing broth to ensure the active agent was properly neutralized. Viable bacteria were enumerated via the drop plate method. Each biocide was evaluated using 24-well plates with 8 wells each for the control cultures (Ctl) inoculated with P. aeruginosa but not treated, a CDA minus test (−CDA) treated with bromine-containing biocide only, and a CDA plus test treated with bromine-containing biocide and CDA (+CDA).

N#CC(Br)(Br)C(N)=O [DBNPA, 2,2-dibromo-3-nitrilopropionamide]
effect of biocide and CDA compared with biocide alone [1]: improved result | Log reduction vs. control: biocide alone ([2]; 1 h contact time, 3-day-old biofilm): ~3 log units | Enhancement ([2]; 310 nM CDA combination vs biocide alone): ~2 log units | Log reduction vs. control: combination of the 310 nM CDA and biocide ([2]; 1 h CDA 310 nM then 1 h biocide): ~5 log units | enhancement by combined treatment relative to biocide alone ([2]; text of Example 2, 310 nM commercial CDA (97% by GC)): two | biofilm reduction by biocide alone ([2]; text of Example 2, 1 h): reduces the biofilm | degradation under storage (HPLC) [3]: Neither DBNPA nor CDA underwent degradation | enhancement of biocidal effect by combined treatment over biocide alone [4]: ~2 log orders | effect of biocide and CDA compared with biocide alone [5]: improved result | effect of biocide and CDA compared with biocide alone [6]: improved effect
